Common to all, as to assay type: cell-based
For one assay, the system named is HIV-1NL4-3 Wild Type. As to the kind of experiment: Luminescence reduction assay, MT4 cells infected with HIV-1NL4-3 luciferase reporter virus, wild type. Conditions: Human immunodeficiency virus 1, MT4, MT4 cells, 2% FCS. Put shortly:
(§1)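 Compound dilution series in 1% DMSO, with 2% or 10% FCS, incubated 5 days at 37° C/5% CO2 with MT4 cells previously pellet-infected (2 h) by luciferase reporter NL4-3 virus, wild type or carrying RT resistance mutations. EC50 taken where luminescence from secreted luciferase falls to 50% of untreated infected control.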

In a further assay the test system is HIV-1NL4-3 K103N-Y181C. As to the kind of experiment: Luminescence reduction assay, MT4 cells infected with HIV-1NL4-3 luciferase reporter virus, RT mutant K103N-Y181C. The note with it: Human immunodeficiency virus 1, MT4, read-out: EC50 (μM) MT4 Cells HIV-1NL4-3 K103N-Y181C 2% FCS, MT4 cells, HIV-1NL4-3 K103N-Y181C, 2% FCS. Put shortly: as §1
Another assay has as its system HIV-1LAI Wild Type. As to the kind of experiment: AlamarBlue viability assay, HIV-1LAI-infected MT4 cells. The note with it: Human immunodeficiency virus 1, MT4, MT4 cells, 10% FCS. Put shortly: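 MT4 cells infected with HIV-1LAI (MOI 0.01, supernatant infection) cultured 5 days at 37 °C with compounds in RPMI with 2% or 10% FCS, 1% DMSO final. AlamarBlue fluorescence after 3 h; EC50 as 50% protection relative to uninfected cells, CC50 from high-concentration cytotoxicity.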

Turning to `COc1cc(OC(F)(F)F)cc(-c2cc(C(=O)N3CCNC(=O)C3)nn2-c2cccnc2)c1` [Example 85, 4-({5-[3-Methoxy-5-(trifluoromethoxy)phenyl]-1-(pyridin-3-yl)-1H-pyrazol-3-yl}carbonyl)piperazin-2-one], the EC50 with HIV-1NL4-3 Wild Type worked out at 0.05 µM; with HIV-1NL4-3 K103N-Y181C, 0.123 µM; in the assay on HIV-1LAI Wild Type, 0.302 µM.
`COc1cc(OC(F)(F)F)cc(-c2cc(C(=O)N3CNC(=O)C3)nn2-c2ccnc(Cl)c2)c1` [Example 86, 1-({1-(2-Chloropyridin-4-yl)-5-[3-methoxy-5-(trifluoromethoxy)phenyl]-1H-pyrazol-3-yl}carbonyl)imidazolidin-4-one]: the EC50 was determined as 0.014 µM with HIV-1NL4-3 Wild Type, 0.011 µM with HIV-1NL4-3 K103N-Y181C and 0.065 µM in the assay with HIV-1LAI Wild Type.
For `COc1cc(OC(F)(F)F)cc(-c2cc(C(=O)N3CCNC(=O)C3)nn2-c2ccnc(Cl)c2)c1` [Example 87, 4-({1-(2-Chloropyridin-4-yl)-5-[3-methoxy-5-(trifluoromethoxy)phenyl]-1H-pyrazol-3-yl}carbonyl)piperazin-2-one], in that order: 0.11 µM, 0.068 µM and 0.618 µM.
As for `N#Cc1cc(OC(F)(F)F)cc(-c2cc(C(=O)N3CNC(=O)C3)nn2-c2cccnc2)c1` [Example 88, 3-{3-[(4-Oxoimidazolidin-1-yl)carbonyl]-1-(pyridin-3-yl)-1H-pyrazol-5-yl}-5-(trifluoromethoxy)benzonitrile], the results for the half-maximal effective concentration (EC50) in the assay on HIV-1NL4-3 Wild Type, in the assay with HIV-1NL4-3 K103N-Y181C and with HIV-1LAI Wild Type were 0.015 µM, 0.026 µM and 0.186 µM, respectively.
For the compound `N#Cc1cc(OC(F)(F)F)cc(-c2cc(C(=O)N3CCNC(=O)C3)nn2-c2cccnc2)c1` [Example 89, 3-{3-[(3-Oxopiperazin-1-yl)carbonyl]-1-(pyridin-3-yl)-1H-pyrazol-5-yl}-5-(trifluoromethoxy)benzonitrile], the results for the EC50 with HIV-1NL4-3 Wild Type, in the assay on HIV-1NL4-3 K103N-Y181C and with HIV-1LAI Wild Type were 0.258 µM, 0.523 µM and 0.129 µM, respectively.
As to `O=C1CN(C(=O)c2cc(-c3cc(F)cc(Br)c3)n(-c3cccnc3)n2)CN1` [Example 90, 1-{[5-(3-Bromo-5-fluorophenyl)-1-(pyridin-3-yl)-1H-pyrazol-3-yl]carbonyl}imidazolidin-4-one], the EC50 is 0.003 µM in the assay on HIV-1NL4-3 Wild Type, 0.033 µM in the assay on HIV-1NL4-3 K103N-Y181C and 0.011 µM with HIV-1LAI Wild Type.
For `O=C1CN(C(=O)c2cc(-c3cc(F)cc(Br)c3)n(-c3cccnc3)n2)CCN1` [Example 91, 4-{[5-(3-Bromo-5-fluorophenyl)-1-(pyridin-3-yl)-1H-pyrazol-3-yl]carbonyl}piperazin-2-one] the same measures were 0.006 µM, 0.392 µM and 0.055 µM.
For `O=C1CN(C(=O)c2cc(-c3cc(F)cc(Br)c3)n(-c3ccnc(Cl)c3)n2)CN1` [Example 92, 1-{[5-(3-Bromo-5-fluorophenyl)-1-(2-chloropyridin-4-yl)-1H-pyrazol-3-yl]carbonyl}imidazolidin-4-one], in that order: 0.005 µM, 0.033 µM and 0.026 µM.
Turning to `O=C1CN(C(=O)c2cc(-c3cc(F)cc(Br)c3)n(-c3ccnc(Cl)c3)n2)CCN1` [Example 93, 4-{[5-(3-Bromo-5-fluorophenyl)-1-(2-chloropyridin-4-yl)-1H-pyrazol-3-yl]carbonyl}piperazin-2-one], the figures for the EC50 in the assay with HIV-1NL4-3 Wild Type, in the assay on HIV-1NL4-3 K103N-Y181C and in the assay on HIV-1LAI Wild Type were 0.016 µM, 0.256 µM and 0.137 µM, respectively.
For `COc1cc(Br)cc(-c2cc(C(=O)N3CNC(=O)C3)nn2-c2cccnc2)c1` [Example 94, 1-{[5-(3-Bromo-5-methoxyphenyl)-1-(pyridin-3-yl)-1H-pyrazol-3-yl]carbonyl}imidazolidin-4-one] the same measures were below 0.002 µM, 0.012 µM and 0.006 µM.
For `COc1cc(Br)cc(-c2cc(C(=O)N3CCNC(=O)C3)nn2-c2cccnc2)c1` [Example 95], in that order: 0.005 µM, 0.054 µM and 0.033 µM.
For `COc1cc(Br)cc(-c2cc(C(=O)N3CNC(=O)C3)nn2-c2ccnc(Cl)c2)c1` [Example 96, 1-{[5-(3-Bromo-5-methoxyphenyl)-1-(2-chloropyridin-4-yl)-1H-pyrazol-3-yl]carbonyl}imidazolidin-4-one] the same measures were 0.004 µM, 0.02 µM and 0.016 µM.
With `COc1cc(Br)cc(-c2cc(C(=O)N3CCNC(=O)C3)nn2-c2ccnc(Cl)c2)c1` [Example 97, 4-{[5-(3-Bromo-5-methoxyphenyl)-1-(2-chloropyridin-4-yl)-1H-pyrazol-3-yl]carbonyl}piperazin-2-one], the EC50 in the assay on HIV-1NL4-3 Wild Type was found to be 0.013 µM; in the assay with HIV-1NL4-3 K103N-Y181C, 0.116 µM; with HIV-1LAI Wild Type, 0.068 µM.
For `O=C1CN(C(=O)c2cc(-c3cncc(F)c3)n(-c3ccc(F)c(Cl)c3)n2)CN1` [Example 98, 1-{[1-(3-Chloro-4-fluorophenyl)-5-(5-fluoropyridin-3-yl)-1H-pyrazol-3-yl]carbonyl}imidazolidin-4-one], in that order: 0.018 µM, 0.032 µM and 0.056 µM.
For the compound `O=C1CN(C(=O)c2cc(-c3cncc(F)c3)n(-c3ccc(F)c(Cl)c3)n2)CCN1` [Example 99, 4-{[1-(3-Chloro-4-fluorophenyl)-5-(5-fluoropyridin-3-yl)-1H-pyrazol-3-yl]carbonyl}piperazin-2-one], the figures for the half-maximal effective concentration (EC50) in the assay with HIV-1NL4-3 Wild Type, in the assay on HIV-1NL4-3 K103N-Y181C and in the assay with HIV-1LAI Wild Type were 0.113 µM, 1.31 µM and 0.258 µM, respectively.
In the case of `O=C1CN(C(=O)c2cc(-c3cncc(Cl)c3)n(-c3ccc(F)c(Cl)c3)n2)CN1` [Example 100, 1-{[1-(3-Chloro-4-fluorophenyl)-5-(5-chloropyridin-3-yl)-1H-pyrazol-3-yl]carbonyl}imidazolidin-4-one], the half-maximal effective concentration (EC50) in the assay on HIV-1NL4-3 Wild Type is 0.005 µM; with HIV-1NL4-3 K103N-Y181C, 0.009 µM; with HIV-1LAI Wild Type, 0.01 µM.
For `O=C1CN(C(=O)c2cc(-c3cncc(Cl)c3)n(-c3ccc(F)c(Cl)c3)n2)CCN1` [Example 101, 4-{[1-(3-Chloro-4-fluorophenyl)-5-(5-chloropyridin-3-yl)-1H-pyrazol-3-yl]carbonyl}piperazin-2-one], in that order: 0.016 µM, 0.088 µM and 0.034 µM.
Turning to `COc1cncc(-c2cc(C(=O)N3CNC(=O)C3)nn2-c2ccc(F)c(Cl)c2)c1` [Example 102, 1-{[1-(3-Chloro-4-fluorophenyl)-5-(5-methoxypyridin-3-yl)-1H-pyrazol-3-yl]carbonyl}imidazolidin-4-one], the EC50 with HIV-1NL4-3 Wild Type was 0.026 µM; with HIV-1NL4-3 K103N-Y181C, 0.022 µM; with HIV-1LAI Wild Type it was 0.111 µM.
For `COc1cncc(-c2cc(C(=O)N3CCNC(=O)C3)nn2-c2ccc(F)c(Cl)c2)c1` [Example 103, 4-{[1-(3-Chloro-4-fluorophenyl)-5-(5-methoxypyridin-3-yl)-1H-pyrazol-3-yl]carbonyl}piperazin-2-one] the same measures were 0.205 µM, 0.375 µM and 0.785 µM.
`O=C(c1cc(-c2cc(F)cc(OC(F)(F)F)c2)n(-c2ccnc(Cl)c2)n1)N1CCSC1` [Example 104, {1-(2-Chloropyridin-4-yl)-5-[3-fluoro-5-(trifluoromethoxy)phenyl]-1H-pyrazol-3-yl}(1,3-thiazolidin-3-yl)methanone]: the EC50 is 0.58 µM in the assay on HIV-1NL4-3 Wild Type, at least 3.3 µM in the assay with HIV-1NL4-3 K103N-Y181C and above 3.3 µM in the assay with HIV-1LAI Wild Type.

The record behind these values is patent US9296720B2, “Carboxamide-substituted heteroaryl-pyrazoles and the use thereof” (AiCuris GmbH & Co. KG, priority 2011, dated 2016).
